Assay results from US12180193B2, “Accelerating fibrosarcoma protein degrading compounds and associated methods of use” (Arvinas Operations, Inc., priority 2020, dated 2024).

Key:
[1] = target: T1, BRAF G466V (Homo sapiens, UniProt P15056, G466V); assay: Cellular assay of target protein degradation, T-Rex 293 cells stably transfected with HA-BRAF G466V (HA immunofluorescence, high content imaging); assay type: cell-based; settings: T-Rex 293 HA-BRAF G466V; for DC50: half maximal degradation, read-out: BRaf G466V DC50; for Dmax: maximum degradation observed
T1 construct: expressed in transfected cells
T1 sequence (P15056 whole entry G466V): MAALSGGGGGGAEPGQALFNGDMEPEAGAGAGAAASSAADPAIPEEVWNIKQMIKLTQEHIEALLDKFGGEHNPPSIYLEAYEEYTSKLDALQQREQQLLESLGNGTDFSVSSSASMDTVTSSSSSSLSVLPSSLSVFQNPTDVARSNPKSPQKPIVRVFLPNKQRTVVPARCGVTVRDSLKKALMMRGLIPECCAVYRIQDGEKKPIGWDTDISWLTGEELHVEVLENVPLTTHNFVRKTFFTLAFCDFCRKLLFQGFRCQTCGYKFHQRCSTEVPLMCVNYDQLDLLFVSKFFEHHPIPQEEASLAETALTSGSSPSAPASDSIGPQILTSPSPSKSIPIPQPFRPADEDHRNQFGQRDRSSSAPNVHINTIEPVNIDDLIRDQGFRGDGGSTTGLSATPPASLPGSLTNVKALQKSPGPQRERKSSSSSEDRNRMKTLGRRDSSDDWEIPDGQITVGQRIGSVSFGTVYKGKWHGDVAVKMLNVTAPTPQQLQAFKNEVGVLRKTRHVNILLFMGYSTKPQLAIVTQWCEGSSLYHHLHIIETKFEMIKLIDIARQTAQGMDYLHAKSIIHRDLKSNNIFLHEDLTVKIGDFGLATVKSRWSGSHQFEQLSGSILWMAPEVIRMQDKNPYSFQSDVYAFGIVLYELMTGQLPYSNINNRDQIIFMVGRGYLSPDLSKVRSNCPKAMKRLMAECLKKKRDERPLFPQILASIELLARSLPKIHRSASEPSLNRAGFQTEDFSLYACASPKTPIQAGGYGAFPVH
Outline: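 24 h compound, 30 nM–3 pM final, 0.1% DMSO, 37° C; HA-BRAF G466V induced with 0.75 ng/mL doxycycline. PFA fix, Triton perm, anti-HA + Alexa fluor secondary, Hoechst/phalloidin counterstain; imaging. DC50, Dmax (% of control).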

[2] = target: T2, BRAF V600E (Homo sapiens, UniProt P15056, V600E); assay: Cellular assay of target protein degradation, T-Rex 293 cells stably transfected with HA-BRAF_V600E (HA immunofluorescence, high content imaging); assay type: cell-based; settings: T-Rex 293 HA-BRAF V600E; for DC50: half maximal degradation, read-out: BRaf V600E DC50; for Dmax: maximum degradation observed
T2 construct: expressed in transfected cells
T2 sequence (P15056 whole entry V600E): as the sequence (P15056 whole entry G466V) above, with V466G, V600E counted along it
Outline: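 24 h compound exposure, 1 μM–0.1 nM final, 0.1% DMSO, 37 °C; cells induced with 1 ng/mL doxycycline. PFA fix, Triton permeabilize, anti-HA overnight 4 °C, Hoechst/phalloidin counterstain. Output: DC50, Dmax as % control.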

Row | DC50 [1] | Dmax [1] | DC50 [2] | Dmax [2] | SMILES
1 | 0.001 to 0.01 µM | 35 to 70% | 0.005 to 0.05 µM | 35 to 70% | C[C@H]1CCCN1S(=O)(=O)Nc1ccc(F)c(C(=O)c2c[nH]c3ncc(-c4ccc(N5CCC(CN6CCC(c7ccc8c(c7)CN([C@H]7CCC(=O)NC7=O)C8=O)CC6)CC5)cc4)cc23)c1F [Compound 211, (2S)—N-{3-[5-(4-{4-[(4-{2-[(3S)-2,6-dioxopiperidin-3-yl]-1-oxo-2,3-dihydro-1H-isoindol-5-yl}piperidin-1-yl)methyl]piperidin-1-yl}phenyl)-1H-pyrrolo[2,3-b]pyridine-3-carbonyl]-2,4-difluorophenyl}-2-methylpyrrolidine-1-sulfonamide]
2 | 0.001 to 0.01 µM | > 70% | 0.005 to 0.05 µM | 35 to 70% | COc1ccc(NS(=O)(=O)N2CC[C@@H](F)C2)c(F)c1C(=O)c1c[nH]c2ncc(-c3ccc(N4CCC(CN5CCC(c6ccc7c(c6)CN([C@H]6CCC(=O)NC6=O)C7=O)CC5)CC4)cc3)cc12 [Compound 212, (3R)—N-{3-[5-(4-{4-[(4-{2-[(3S)-2,6-dioxopiperidin-3-yl]-1-oxo-2,3-dihydro-1H-isoindol-5-yl}piperidin-1-yl)methyl]piperidin-1-yl}phenyl)-1H-pyrrolo[2,3-b]pyridine-3-carbonyl]-2-fluoro-4-methoxyphenyl}-3-fluoropyrrolidine-1-sulfonamide]
3 | 0.001 to 0.01 µM | > 70% | 0.005 to 0.05 µM | 35 to 70% | CN(CC(F)F)S(=O)(=O)Nc1ccc(F)c(C(=O)c2c[nH]c3ncc(-c4ccc(N5CCC(CN6CCC(c7ccc8c(c7)CN(C7CCC(=O)NC7=O)C8=O)CC6)CC5)cc4)cc23)c1F (stereo not drawn) [Compound 213, 3-(5-{1-[(1-{4-[3-(3-{[(2,2-difluoroethyl)(methyl)sulfamoyl]amino}-2,6-difluorobenzoyl)-1H-pyrrolo[2,3-b]pyridin-5-yl]phenyl}piperidin-4-yl)methyl]piperidin-4-yl}-1-oxo-2,3-dihydro-1H-isoindol-2-yl) piperidine-2,6-dione]
4 | 0.001 to 0.01 µM | 35 to 70% | 0.005 to 0.05 µM | < 35% | O=C1CCC(N2Cc3cc(N4CCC(C5CCN(c6ccc(-c7cnc8[nH]cc(C(=O)c9c(F)ccc(NS(=O)(=O)N%10CC[C@@H](F)C%10)c9F)c8c7)cc6)CC5)CC4)ccc3C2=O)C(=O)N1 (stereo partly drawn) [Compound 214, (3R)-N-{3-[5-(4-{1′-[2-(2,6-dioxopiperidin-3-yl)-1-oxo-2,3-dihydro-1H-isoindol-5-yl]-[4,4′-bipiperidin]-1-yl}phenyl)-1H-pyrrolo[2,3-b]pyridine-3-carbonyl]-2,4-difluorophenyl}-3-fluoropyrrolidine-1-sulfonamide]
5 | 0.001 to 0.01 µM | > 70% | 0.005 to 0.05 µM | 35 to 70% | O=C1CCC(N2Cc3cc(C4CCN(CC5CCN(c6cnc(-c7cnc8[nH]cc(C(=O)c9c(F)ccc(NS(=O)(=O)N%10CC[C@@H](F)C%10)c9F)c8c7)nc6)CC5)CC4)ccc3C2=O)C(=O)N1 (stereo partly drawn) [Compound 215, (3R)-N-[3-(5-{5-[4-({4-[2-(2,6-dioxopiperidin-3-yl)-1-oxo-2,3-dihydro-1H-isoindol-5-yl]piperidin-1-yl}methyl)piperidin-1-yl]pyrimidin-2-yl}-1H-pyrrolo[2,3-b]pyridine-3-carbonyl)-2,4-difluorophenyl]-3-fluoropyrrolidine-1-sulfonamide]
6 | 0.001 to 0.01 µM | > 70% | 0.005 to 0.05 µM | < 35% | O=C1CCC(N2Cc3cc(C4CCN(CC[C@@H]5CCN(c6ccc(-c7cnc8[nH]cc(C(=O)c9c(F)ccc(NS(=O)(=O)N%10CC[C@@H](F)C%10)c9F)c8c7)cc6)C5)CC4)ccc3C2=O)C(=O)N1 (stereo partly drawn) [Compound 216, (3R)-N-[3-(5-{4-[(3R)-3-(2-{4-[2-(2,6-dioxopiperidin-3-yl)-1-oxo-2,3-dihydro-1H-isoindol-5-yl]piperidin-1-yl}ethyl)pyrrolidin-1-yl]phenyl}-1H-pyrrolo [2,3-b]pyridine-3-carbonyl)-2,4-difluorophenyl]-3-fluoropyrrolidine-1-sulfonamide]
7 | 0.01 to 0.03 µM | > 70% | 0.005 to 0.05 µM | 35 to 70% | O=C1CCC(N2Cc3cc(C4CCN(CC[C@H]5CCN(c6ccc(-c7cnc8[nH]cc(C(=O)c9c(F)ccc(NS(=O)(=O)N%10CC[C@@H](F)C%10)c9F)c8c7)cc6)C5)CC4)ccc3C2=O)C(=O)N1 (stereo partly drawn) [Compound 217, (3R)-N-[3-(5-{4-[(3S)-3-(2-{4-[2-(2,6-dioxopiperidin-3-yl)-1-oxo-2,3-dihydro-1H-isoindol-5-yl]piperidin-1-yl}ethyl)pyrrolidin-1-yl]phenyl}-1H-pyrrolo [2,3-b]pyridine-3-carbonyl)-2,4-difluorophenyl]-3-fluoropyrrolidine-1-sulfonamide]
8 | > 0.03 µM | – | > 0.5 µM | – | O=C1CCC(N2Cc3cc(C4CCN(CCC5CN(c6ccc(-c7cnc8[nH]cc(C(=O)c9c(F)ccc(NS(=O)(=O)N%10CC[C@@H](F)C%10)c9F)c8c7)cc6)C5)CC4)ccc3C2=O)C(=O)N1 (stereo partly drawn) [Compound 218, (3R)-N-[3-(5-{4-[3-(2-{4-[2-(2,6-dioxopiperidin-3-yl)-1-oxo-2,3-dihydro-1H-isoindol-5-yl]piperidin-1-yl}ethyl)azetidin-1-yl]phenyl}-1H-pyrrolo[2,3-b]pyridine-3-carbonyl)-2,4-difluorophenyl]-3-fluoropyrrolidine-1-sulfonamide]
9 | 0.001 to 0.01 µM | > 70% | 0.005 to 0.05 µM | 35 to 70% | O=C1CC[C@H](N2Cc3cc(N4CCN(CC5CCN(c6ccc(-c7cnc8[nH]cc(C(=O)c9c(F)ccc(NS(=O)(=O)N%10CC[C@@H](F)C%10)c9F)c8c7)cc6)CC5)CC4)ccc3C2=O)C(=O)N1 [Compound 219, (3R)-N-{3-[5-(4-{4-[(4-{2-[(3S)-2,6-dioxopiperidin-3-yl]-1-oxo-2,3-dihydro-1H-isoindol-5-yl}piperazin-1-yl)methyl]piperidin-1-yl}phenyl)-1H-pyrrolo [2,3-b]pyridine-3-carbonyl]-2,4-difluorophenyl}-3-fluoropyrrolidine-1-sulfonamide]
10 | 0.001 to 0.01 µM | > 70% | 0.005 to 0.05 µM | 35 to 70% | O=C1CC[C@@H](N2Cc3cc(N4CCN(CC5CCN(c6ccc(-c7cnc8[nH]cc(C(=O)c9c(F)ccc(NS(=O)(=O)N%10CC[C@@H](F)C%10)c9F)c8c7)cc6)CC5)CC4)ccc3C2=O)C(=O)N1 [Compound 220, (3R)-N-{3-[5-(4-{4-[(4-{2-[(3R)-2,6-dioxopiperidin-3-yl]-1-oxo-2,3-dihydro-1H-isoindol-5-yl}piperazin-1-yl)methyl]piperidin-1-yl}phenyl)-1H-pyrrolo [2,3-b]pyridine-3-carbonyl]-2,4-difluorophenyl}-3-fluoropyrrolidine-1-sulfonamide]
11 | 0.001 to 0.01 µM | > 70% | 0.005 to 0.05 µM | 35 to 70% | O=C1CC[C@H](N2Cc3cc(N4CC5(CN(CC6CCN(c7ccc(-c8cnc9[nH]cc(C(=O)c%10c(F)ccc(NS(=O)(=O)N%11CC[C@@H](F)C%11)c%10F)c9c8)cc7)CC6)C5)C4)ccc3C2=O)C(=O)N1 [Compound 221, (3R)-N-{3-[5-(4-{4-[(6-{2-[(3S)-2,6-dioxopiperidin-3-yl]-1-oxo-2,3-dihydro-1H-isoindol-5-yl}-2,6-diazaspiro[3.3]heptan-2-yl)methyl]piperidin-1-yl}phenyl)-1H-pyrrolo[2,3-b]pyridine-3-carbonyl]-2,4-difluorophenyl}-3-fluoropyrrolidine-1-sulfonamide]
